The numbers were not newly measured in US20230303712A1, “METHODS OF TREATING GLIOBLASTOMA” (Ramot at Tel-Aviv University Ltd., priority 2020, published 2023), which cites them from elsewhere.

The conditions of data set [1]: administered systemically; cited from earlier work.
Data set [2] has as its target T1, P-Selectin (Homo sapiens, UniProt P16109).
T1 sequence (P16109 42-830): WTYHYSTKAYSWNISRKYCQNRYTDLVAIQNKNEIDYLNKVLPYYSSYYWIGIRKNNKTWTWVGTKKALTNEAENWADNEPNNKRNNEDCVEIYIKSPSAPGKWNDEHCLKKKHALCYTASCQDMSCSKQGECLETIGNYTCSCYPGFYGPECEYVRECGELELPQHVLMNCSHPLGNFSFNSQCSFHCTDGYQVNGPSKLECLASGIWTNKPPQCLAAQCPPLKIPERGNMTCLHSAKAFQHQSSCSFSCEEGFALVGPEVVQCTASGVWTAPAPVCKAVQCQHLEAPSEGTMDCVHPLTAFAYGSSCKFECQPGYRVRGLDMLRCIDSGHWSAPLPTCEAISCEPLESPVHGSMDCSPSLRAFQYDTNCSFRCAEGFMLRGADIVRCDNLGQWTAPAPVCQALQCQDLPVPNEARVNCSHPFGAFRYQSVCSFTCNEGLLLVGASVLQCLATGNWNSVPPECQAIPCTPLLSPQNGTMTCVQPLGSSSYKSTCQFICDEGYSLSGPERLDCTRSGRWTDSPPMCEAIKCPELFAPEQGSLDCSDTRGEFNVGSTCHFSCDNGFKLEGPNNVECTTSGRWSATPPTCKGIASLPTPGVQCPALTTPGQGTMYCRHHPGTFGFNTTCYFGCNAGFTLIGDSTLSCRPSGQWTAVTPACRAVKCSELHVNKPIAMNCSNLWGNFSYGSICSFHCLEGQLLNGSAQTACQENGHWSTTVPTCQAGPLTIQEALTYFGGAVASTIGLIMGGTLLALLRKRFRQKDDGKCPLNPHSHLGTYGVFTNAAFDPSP
Particulars: in humans in vitro; cited from earlier work.

The target in data set [3] is T2, E-Selectin (Homo sapiens, UniProt P16581).
T2 sequence (P16581 22-610): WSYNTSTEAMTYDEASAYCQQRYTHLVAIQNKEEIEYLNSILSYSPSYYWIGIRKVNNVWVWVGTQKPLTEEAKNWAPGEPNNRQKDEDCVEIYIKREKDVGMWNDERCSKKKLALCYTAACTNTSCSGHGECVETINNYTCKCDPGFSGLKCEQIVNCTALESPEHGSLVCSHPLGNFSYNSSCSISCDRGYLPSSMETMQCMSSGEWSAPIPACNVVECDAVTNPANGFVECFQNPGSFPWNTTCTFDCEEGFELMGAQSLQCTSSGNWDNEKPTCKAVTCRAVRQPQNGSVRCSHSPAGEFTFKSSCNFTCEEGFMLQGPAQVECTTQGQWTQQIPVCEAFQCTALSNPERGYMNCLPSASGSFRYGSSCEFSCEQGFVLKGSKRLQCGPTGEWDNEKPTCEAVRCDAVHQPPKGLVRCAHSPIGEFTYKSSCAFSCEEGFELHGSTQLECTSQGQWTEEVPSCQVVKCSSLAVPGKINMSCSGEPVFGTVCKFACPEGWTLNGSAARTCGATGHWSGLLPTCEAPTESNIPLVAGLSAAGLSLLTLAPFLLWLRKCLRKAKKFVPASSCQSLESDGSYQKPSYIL
Particulars: in humans in vitro; cited from earlier work.

For data set [4] the following is noted: different animal models; cited from earlier work.
In data set [5] the target is T3, L-Selectin (Homo sapiens, UniProt P14151).
T3 sequence (P14151 39-372): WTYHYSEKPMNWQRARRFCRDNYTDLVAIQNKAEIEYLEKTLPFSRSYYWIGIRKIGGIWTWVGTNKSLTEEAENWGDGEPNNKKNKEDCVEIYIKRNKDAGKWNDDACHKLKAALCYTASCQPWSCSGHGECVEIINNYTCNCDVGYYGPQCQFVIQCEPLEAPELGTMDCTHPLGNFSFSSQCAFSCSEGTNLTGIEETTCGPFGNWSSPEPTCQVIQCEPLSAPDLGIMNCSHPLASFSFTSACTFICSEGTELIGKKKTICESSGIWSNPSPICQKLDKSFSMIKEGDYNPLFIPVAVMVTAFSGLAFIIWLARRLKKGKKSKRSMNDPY
The settings on record: in humans in vitro; cited from earlier work.

For the molecule “inclacumab: monoclonal antibody directed towards P-selectin”, in data set [1], the tolerability in patients result is recorded as “well tolerated”.
In the case of `O=C(O)Cc1cccc(-c2cc(CCCCCCc3ccc(OC4O[C@H](CO)C(O)[C@H](O)[C@@H]4O)c(-c4cccc(CC(=O)O)c4)c3)ccc2OC2O[C@H](CO)C(O)[C@H](O)[C@@H]2O)c1` (stereo partly drawn) [Bimosiamose (TBC1269)], in data set [2], the P-selectin-dependent adhesion entry was “inhibit”. In addition, the E-selectin-dependent adhesion result in data set [3] is “inhibit”. Besides, the anti-inflammatory effects entry in data set [4] is listed as “anti-inflammatory effects”. Moreover, the L-selectin-dependent adhesion result in data set [5] is listed as “inhibit”.

B1: crizanlizumab: Humanized monoclonal anti-P-selectin antibody (antibody, chains of the INN, looked up, V domains shown)
VH: QVQLVQSGAEVKKPGASVKVSCKVSGYTFTSYDINWVRQAPGKGLEWMGWIYPGDGSIKYNEKFKGRVTMTVDKSTDTAYMELSSLRSEDTAVYYCARRGEYGNYEGAMDYWGQGTLVTVSS
VL: DIQMTQSPSSLSASVGDRVTITCKASQSVDYDGHSYMNWYQQKPGKAPKLLIYAASNLESGVPSRFSGSGSGTDFTLTISSLQPEDFATYYCQQSDENPLTFGGGTKVEIK
On to B1, for which the tolerability in patients result in data set [1] was “well tolerated”.
